From PubChem BioAssay (NCI)
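Following 48 hours of exposure in 96-well plates, responses at five concentrations were used to interpolate endpoints linearly. GI50: concentration for 50% inhibition of growth. At the TGI there is no net growth.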

Tests used:
Assay in all cases: NCI anticancer screen, dose series, 48 h; in the data active = GI50 below about 0.43 µM; inactive = the rest
[1] = test system: CAKI-1 renal
[2] = test system: SR leukemia
[3] = test system: RXF 393 renal
[4] = test system: SN12C renal
[5] = test system: MDA-MB-231 breast
[6] = test system: OVCAR-4 ovarian
[7] = test system: A498 renal
[8] = test system: SF-268 CNS
[9] = test system: SK-OV-3 ovarian
[10] = test system: SF-539 CNS
[11] = test system: M14 melanoma
[12] = test system: MCF7 breast
[13] = test system: UACC-257 melanoma
[14] = test system: SK-MEL-28 melanoma
[15] = test system: SNB-75 CNS
[16] = test system: KM12 colon
[17] = test system: IGROV1 ovarian
[18] = test system: COLO 205 colon
[19] = test system: K-562 leukemia
[20] = test system: NCI/ADR-RES ovarian
[21] = test system: MDA-N
[22] = test system: MOLT-4 leukemia
[23] = test system: OVCAR-8 ovarian
[24] = test system: SK-MEL-5 melanoma
[25] = test system: DU-145 prostate
[26] = test system: 786-0 renal
[27] = test system: HOP-62 NSCLC
[28] = test system: NCI-H226 lung
[29] = test system: TK-10 renal
[30] = test system: HCC-2998 colon
[31] = test system: EKVX NSCLC
[32] = test system: HCT-116 colon
[33] = test system: HS 578T breast
[34] = test system: MDA-MB-435
[35] = test system: HL-60(TB) leukemia
[36] = test system: NCI-H522 lung
[37] = test system: NCI-H23 lung
[38] = test system: UACC-62 melanoma
[39] = test system: MALME-3M melanoma
[40] = test system: T-47D breast
[41] = test system: SK-MEL-2 melanoma
[42] = test system: RPMI-8226 leukemia
[43] = test system: A549 NSCLC
[44] = test system: HOP-92 NSCLC
[45] = test system: SNB-19 CNS
[46] = test system: OVCAR-3 ovarian
[47] = test system: SW-620 colon
[48] = test system: SF-295 CNS
[49] = test system: HCT-15 colon
[50] = test system: LOX IMVI melanoma
[51] = test system: NCI-H460 lung
[52] = test system: PC-3 prostate
[53] = test system: U251 CNS
[54] = test system: OVCAR-5 ovarian
[55] = test system: UO-31 renal
[56] = test system: HT29 colon
[57] = test system: BT-549 breast
[58] = test system: ACHN renal
[59] = test system: CCRF-CEM leukemia

COC(C(=O)C(O)C(C)O)C1CC2C=C3C=C(OC4CC(OC5CC(O)C(OC)C(C)O5)C(OC(C)=O)C(C)O4)C(C)C(=O)C3=C(O)C2=C(O)C1OC1CC(OC2CC(OC3CC(C)(O)C(OC(=O)C(C)C)C(C)O3)C(O)C(C)O2)C(O)C(C)O1 (configuration not stated)
0.425 µM: TGI [20]
< 0.01 µM: TGI [2] | TGI [3] | TGI [4] | TGI [5] | TGI [7] | TGI [8] | TGI [10] | TGI [11] | TGI [13] | TGI [14] | TGI [15] | TGI [16] | TGI [18] | TGI [19] | TGI [21] | TGI [23] | TGI [24] | TGI [25] | TGI [26] | TGI [27] | TGI [28] | TGI [30] | TGI [31] | TGI [33] | TGI [34] | TGI [35] | TGI [36] | TGI [37] | TGI [38] | TGI [39] | TGI [40] | TGI [41] | TGI [42]
> 100 µM: TGI [1] | TGI [6] | TGI [9] | TGI [12] | TGI [17] | TGI [22] | TGI [29] | TGI [32]

CCCCCCCCCc1cc[n+](CC(=O)c2ccc([N+](=O)[O-])cc2)cc1
2.36 µM: TGI [15]
2.28 µM: TGI [46]
2.55 µM: TGI [31]
3.64 µM: TGI [35] | TGI [40]
2.56 µM: TGI [37]
1.9 µM: TGI [4]
12 µM: TGI [1]
3.14 µM: TGI [7]
inactive: GI50 [1] 3.19 µM | GI50 [2] 0.612 µM | GI50 [43] 1.64 µM | GI50 [3] 0.754 µM | GI50 [4] 0.581 µM | GI50 [5] 0.447 µM | GI50 [6] 0.78 µM | GI50 [7] 1.26 µM | GI50 [8] 1.34 µM | GI50 [45] 0.478 µM | GI50 [46] 1.04 µM | GI50 [9] 1.66 µM | GI50 [10] 1.65 µM | GI50 [11] 0.553 µM | GI50 [13] 1.47 µM | GI50 [48] 1.44 µM | GI50 [14] 1.11 µM | GI50 [15] 1.12 µM | GI50 [16] 0.569 µM | GI50 [17] 1.66 µM | GI50 [49] 1.19 µM | GI50 [20] 2.17 µM | GI50 [22] 2.1 µM | GI50 [50] 1.66 µM | GI50 [51] 1.53 µM | GI50 [23] 0.604 µM | GI50 [52] 0.552 µM | GI50 [53] 0.457 µM | GI50 [54] 1.16 µM | GI50 [25] 0.729 µM | GI50 [26] 1.75 µM | GI50 [27] 1.05 µM | GI50 [28] 0.535 µM | GI50 [29] 1.47 µM | GI50 [30] 0.514 µM | GI50 [31] 0.914 µM | GI50 [33] 1.69 µM | GI50 [55] 1.48 µM | GI50 [35] 1.7 µM | GI50 [36] 1.36 µM | GI50 [37] 1.01 µM | GI50 [38] 1.23 µM | GI50 [39] 1.41 µM | GI50 [57] 1.27 µM | GI50 [40] 1.63 µM | GI50 [41] 0.565 µM | GI50 [58] 1.42 µM | GI50 [42] 0.439 µM | GI50 [59] 1.95 µM
2.54 µM: TGI [38]
2.15 µM: TGI [3] | TGI [28] | TGI [42]
5.27 µM: TGI [22]
2.04 µM: TGI [25]
2.81 µM: TGI [8]
3.13 µM: TGI [43]
2.9 µM: TGI [55]
1.43 µM: TGI [32]
3.25 µM: TGI [26]
active: GI50 [44] 0.234 µM | GI50 [12] 0.397 µM | GI50 [47] 0.403 µM | GI50 [18] 0.344 µM | GI50 [19] 0.338 µM | GI50 [24] 0.42 µM | GI50 [32] 0.373 µM | GI50 [34] 0.391 µM | GI50 [56] 0.313 µM
1.76 µM: TGI [53]
1.03 µM: TGI [44]
3.18 µM: TGI [9]
2.88 µM: TGI [29]
2.57 µM: TGI [6] | TGI [49]
3.1 µM: TGI [10]
2.06 µM: TGI [41]
1.7 µM: TGI [5]
3.2 µM: TGI [13]
2.79 µM: TGI [48]
3.19 µM: TGI [50]
3.08 µM: TGI [51]
1.45 µM: TGI [18]
2.13 µM: TGI [23]
2.39 µM: TGI [14] | TGI [27]
4.51 µM: TGI [33]
3.03 µM: TGI [39]
4.92 µM: TGI [20]
1.56 µM: TGI [34]
1.93 µM: TGI [30]
1.97 µM: TGI [16]
5.01 µM: TGI [59]
2.14 µM: TGI [11]
1.29 µM: TGI [56]
2.82 µM: TGI [58]
1.63 µM: TGI [47]
1.88 µM: TGI [52]
2.72 µM: TGI [57]
4.48 µM: TGI [2]
2.52 µM: TGI [54]
1.8 µM: TGI [45]
2.02 µM: TGI [19]
3.29 µM: TGI [17]
1.54 µM: TGI [24]
2.87 µM: TGI [36]
1.79 µM: TGI [12]

O=[N+]([O-])c1ccc(/C=N/Nc2nnc3c4ccccc4c4ncccc4c3n2)o1
> 10 µM: TGI [1] | TGI [2] | TGI [43] | TGI [3] | TGI [4] | TGI [5] | TGI [8] | TGI [9] | TGI [11] | TGI [12] | TGI [13] | TGI [47] | TGI [48] | TGI [14] | TGI [15] | TGI [16] | TGI [17] | TGI [18] | TGI [19] | TGI [49] | TGI [21] | TGI [22] | TGI [23] | TGI [24] | TGI [52] | TGI [25] | TGI [26] | TGI [27] | TGI [29] | TGI [30] | TGI [31] | TGI [35] | TGI [56] | TGI [37] | TGI [38] | TGI [39] | TGI [40] | TGI [42] | TGI [59]
